This assay concerns mice of the NZO strain (genetically obese, hyperglycaemic and hyperinsulinaemic). In words: APP given intraperitoneally to NZO mice: blood glucose, serum insulin, weight, oral Glucose Tolerance Test. The class given is in vivo. The conditions noted are these: mean of APP-treated group, 1 μg i.p. 3 times a day; for Serum Insulin: Beef equivalent. From the text: It has now unexpectedly been found by the Applicants that these vertebrate pancreatic polypeptides (hereinafter collectively referred to as VPPs, which term should be understood to include such polypeptides of avian, amphibian, piscian, reptilian or mammalian origin) are as a class effective in lowering the concentration in the blood of both glucose and insulin when administered to a strain (NZO) of genetically obese, hyperglycaemic and hyperinsulinaemic mice. At the same time these treated mice lose weight as compared with untreated control animals and give normalized values in the oral Glucose Tolerance Test standard in the art.
APP (Endocrinology 83, 1323 (1968)) (1 μg) in water (0.1 ml) was administered by intraperitoneal injection 3 times a day for 25 days to each of 5 male mice (age 6 weeks, weight 23 g) of the NZO strain (genetically obese, hyperglycaemic and hyperinsulinaemic). 5 Matched control animals each received plain water (0.1 ml) by the same route and according to the same schedule. The blood glucose and serum insulin levels were measured at the start and during the course of the experiment and the mean results for the APP-treated group are shown in Table 1. No change in these levels from the values on day 0, which were the same as in the treated group, occurred in the control group over the course of the experiment.

For avian pancreatic polypeptide [APP], the “Serum Insulin” value came to 189 μU/ml (Day 0 (start)), 99 μU/ml (Day 10) and 47 μU/ml (Day 20). The Blood glucose runs as follows: (Day 0 (start), 5 male NZO mice) 175 mg. %; (Day 5) 162 mg. %; (Day 15) 154 mg. %; (Day 25) 136 mg. %.

The values are drawn from patent US4355025A, “Biologically active amides” (Burroughs Wellcome Co., priority 1975, dated 1982).
